Literature values as cited in patent publication US8455508B2, “Sustained release parenteral formulations of buprenorphine” (priority 2007, dated 2013).

Conditions: in oil

In the case of `CCCCCCCCCC(=O)Oc1ccc2c3c1OC1C4(OC)CCC5(CC4C(C)(O)C(C)(C)C)C(C2)N(CC2CC2)CCC315` (stereo not shown) [buprenorphine decanoate], the “duration of action relative to buprenorphine HCl in saline” value is given as 14 fold.
